Measured values published in patent US20240374570A1, “DRIVING AXON REGENERATION BY NRF2 OVEREXPRESSION AND EDARAVONE APPLICATION” (The Hong Kong University of Science and Technology, priority 2023, published 2024).

System: dorsal root ganglion (DRG) neurons
Assay: DRG neurons replating culture, axon growth
Assay type: cell-based, mice
Conditions: one day treatment, then replated 20 hours under continued treatment, vs DMSO vehicle
Experimental: FIGS. 3A-3B Edaravone promotes axon elongation in DRG replating culture. (FIG. 3A) Representative image of replated DRG neurons treated by the DMSO vehicle control and indicated concentration of edaravone. Scale bar: 400 μm. (FIG. 3B) Quantification of the longest neuron length of the tested concentrations of edaravone. Dots represent the measurement of each neuron.
Primary culture and replating culture of DRG neurons were performed as following protocols. L3-L5 dorsal root ganglia (DRGs) were dissected from adult WT mice and digested in 0.5% collagenase for 90 minutes. Subsequently, the digestion medium was replaced with culture medium (Neurobasal-A supplemented with penicillin-streptomycin and B-27). The digested DRGs were then triturated with a pipette 20-30 times to isolate DRG neurons. The isolated DRG neurons were plated onto a 6-well plate pre-coated with Poly-D-Lysine and laminin. Primary cultured DRG neurons received 1 μM edaravone, 10 μM edaravone or DMSO vehicle treatment for one day. After then, neurons were resuspended and replated to another dish under continue treatment of vehicle/edaravone. The replating culture was terminated with 4% PFA after 20 hours. Tuj1 staining was performed to visualize DRG cell bodies and neurites.
Adult mice dorsal root ganglion (DRG) neurons replating culture was used to investigate the effect of edaravone on axon growth. […]

CC1=NN(c2ccccc2)C(=O)C1 [edaravone, 5-methyl-2-phenyl-2,4-dihydro-3H-pyrazol-3-one]
axon (neurite) growth, longest neuron length (1 μM): significant growth-promoting effect | axon (neurite) growth, longest neuron length (10 μM): significant growth-promoting effect
